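Grown in 96-well plates, cells were treated for 48 hours with each compound at five concentrations. Insufficient inhibition: endpoint recorded as highest concentration tested. The concentration for 50% growth inhibition is given as GI50. TGI marks complete inhibition of growth.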

Experimental findings from PubChem BioAssay (NCI) are described below.

Test systems include IGROV1 ovarian; NCI/ADR-RES ovarian; OVCAR-4 ovarian; OVCAR-3 ovarian; A549 NSCLC; PC-3 prostate; HT29 colon; UACC-257 melanoma; M14 melanoma; CCRF-CEM leukemia.
Test in all cases: NCI anticancer screen, dose series, 48 h

With `Cc1ccccc1C1N=C2Oc3ccccc3C=C2C(=O)N1` (stereo not given), the GI50 with IGROV1 ovarian was 9.85 µM; in the test on NCI/ADR-RES ovarian, 2.96 µM; with OVCAR-4 ovarian, 11.8 µM; in the test with OVCAR-3 ovarian, 0.621 µM; with A549 NSCLC, 3.55 µM; with PC-3 prostate it was 0.86 µM. Also, the GI50 in the test with HT29 colon is 4.48 µM; in the test with UACC-257 melanoma, > 100 µM; in the test with M14 melanoma it was 0.826 µM; in the test on CCRF-CEM leukemia, 4.63 µM. For the same compound, the TGI in the test with IGROV1 ovarian was > 100 µM; in the test with NCI/ADR-RES ovarian, > 87.8 µM; in the test with OVCAR-4 ovarian, > 100 µM; in the test with OVCAR-3 ovarian it was 2.69 µM; with A549 NSCLC, > 100 µM; in the test with PC-3 prostate it was > 100 µM. Also, the TGI in the test on HT29 colon was > 100 µM; in the test on UACC-257 melanoma, > 100 µM; with M14 melanoma, 7.66 µM; in the test on CCRF-CEM leukemia it was > 100 µM.
In the case of `OC1(c2ccccc2)c2ccccc2N(c2ccccc2)c2ccc(Cl)cc21` (stereo not given), the GI50 with IGROV1 ovarian was 0.341 µM; with NCI/ADR-RES ovarian, 1.55 µM; in the test on OVCAR-4 ovarian, 0.313 µM; with OVCAR-3 ovarian, 0.147 µM; in the test on A549 NSCLC it was 0.332 µM; in the test with PC-3 prostate it was 0.303 µM. Also, the GI50 in the test with HT29 colon is 0.283 µM; in the test with UACC-257 melanoma, 0.201 µM; in the test with M14 melanoma it was 0.249 µM; in the test on CCRF-CEM leukemia, 0.382 µM. Further, the TGI with IGROV1 ovarian stood at 1.15 µM; in the test on NCI/ADR-RES ovarian, 6.23 µM; with OVCAR-4 ovarian, 1.39 µM; in the test with OVCAR-3 ovarian, 0.304 µM; in the test with A549 NSCLC, 1.3 µM; with PC-3 prostate, 1.23 µM. The TGI with HT29 colon was 0.918 µM; with UACC-257 melanoma, 0.72 µM; in the test with M14 melanoma, 0.694 µM; in the test with CCRF-CEM leukemia, 13.7 µM.
For `FC(F)(F)c1ccc(-c2cnc(-c3nn[nH]n3)nc2NC2CCCCCC2)cc1`, the GI50 in the test on IGROV1 ovarian, in the test on NCI/ADR-RES ovarian, in the test on OVCAR-4 ovarian, with OVCAR-3 ovarian, with A549 NSCLC and in the test with PC-3 prostate was > 10 µM each time. Moreover, the GI50 with HT29 colon, in the test with UACC-257 melanoma, in the test with M14 melanoma and in the test with CCRF-CEM leukemia was > 10 µM throughout. Moreover, the TGI in the test with IGROV1 ovarian, with NCI/ADR-RES ovarian, in the test on OVCAR-4 ovarian, in the test with OVCAR-3 ovarian, in the test with A549 NSCLC and with PC-3 prostate was > 10 µM throughout. For the same compound, the TGI in the test with HT29 colon, in the test with UACC-257 melanoma, in the test with M14 melanoma and in the test with CCRF-CEM leukemia was > 10 µM each time.
On to `C/C=C/C(C/C=C(\C)CO[Si](C)(C)C(C)(C)C)O[Si](C)(C)C(C)(C)C` (stereo not given), for which the TGI with IGROV1 ovarian, in the test with NCI/ADR-RES ovarian, in the test on OVCAR-4 ovarian, in the test with OVCAR-3 ovarian, in the test on A549 NSCLC and in the test with PC-3 prostate was > 100 µM in each case. The TGI with HT29 colon, in the test on UACC-257 melanoma, in the test on M14 melanoma and in the test on CCRF-CEM leukemia was > 100 µM each time.
With `c1c[nH]c(CN2CCN(Cc3ncc[nH]3)CC2)n1`, the TGI in the test on IGROV1 ovarian, in the test with NCI/ADR-RES ovarian, in the test on OVCAR-4 ovarian, in the test on OVCAR-3 ovarian, in the test with A549 NSCLC and in the test on PC-3 prostate was > 100 µM in each case. For the same compound, the TGI in the test on HT29 colon, in the test with UACC-257 melanoma, with M14 melanoma and in the test with CCRF-CEM leukemia was > 100 µM in each case.
As for `COc1ncc(-c2ccc3nc(N)n(-c4ccccc4C(F)(F)F)c(=O)c3c2)cc1S(=O)(=O)Nc1ccc(F)cc1F`, the GI50 is 1.15 µM in the test on IGROV1 ovarian; 1.94 µM in the test with NCI/ADR-RES ovarian; 3.64 µM with OVCAR-4 ovarian; 0.369 µM with OVCAR-3 ovarian; 0.653 µM in the test on A549 NSCLC; 1.71 µM in the test with PC-3 prostate. Moreover, the GI50 in the test on HT29 colon is 0.635 µM; in the test with UACC-257 melanoma, 7.81 µM; in the test with M14 melanoma it was 1.23 µM; in the test with CCRF-CEM leukemia, 1.28 µM. The TGI with IGROV1 ovarian was > 100 µM; in the test on NCI/ADR-RES ovarian, 13.8 µM; with OVCAR-4 ovarian it was > 100 µM; with OVCAR-3 ovarian, 3.75 µM; with A549 NSCLC, > 100 µM; in the test with PC-3 prostate, 73.7 µM. Moreover, the TGI with HT29 colon turned out to be 4.53 µM; in the test with UACC-257 melanoma, 24.5 µM; with M14 melanoma, 14.8 µM; with CCRF-CEM leukemia, 32.2 µM.
Regarding `CC1(C)CCC(c2ccc(Cl)cc2)=C(CN2CCN(c3ccc(C(=O)NS(=O)(=O)c4ccc(N[C@H](CCN5CCOCC5)CSc5ccccc5)c(S(=O)(=O)C(F)(F)F)c4)cc3)CC2)C1`, the GI50 is 2.37 µM in the test on IGROV1 ovarian; 3.2 µM in the test on NCI/ADR-RES ovarian; 1.22 µM in the test on OVCAR-4 ovarian; 1.62 µM with OVCAR-3 ovarian; 1.73 µM in the test on A549 NSCLC; 1.68 µM in the test on PC-3 prostate. Moreover, the GI50 was 1.91 µM in the test with HT29 colon, 1.63 µM in the test on UACC-257 melanoma, 1.83 µM with M14 melanoma and 0.0618 µM with CCRF-CEM leukemia. Moreover, the TGI with IGROV1 ovarian came out at 5.25 µM; in the test with NCI/ADR-RES ovarian, 11.7 µM; with OVCAR-4 ovarian it was 2.52 µM; in the test with OVCAR-3 ovarian, 3 µM; with A549 NSCLC it was 3.58 µM; in the test with PC-3 prostate, 4.5 µM. The TGI came to 3.97 µM with HT29 colon, 3.4 µM in the test on UACC-257 melanoma, 3.38 µM in the test with M14 melanoma and 7.43 µM in the test with CCRF-CEM leukemia.
Take `CCn1nc(C#Cc2c(C)ccc3c(Nc4ccc(Cl)cc4)nccc23)c2c(N)ncnc21`: the GI50 was 3.09 µM with IGROV1 ovarian; 3.1 µM in the test with NCI/ADR-RES ovarian; 6.16 µM in the test on OVCAR-4 ovarian; 3.46 µM in the test with OVCAR-3 ovarian; 4.58 µM in the test on A549 NSCLC; 3.03 µM in the test on PC-3 prostate. For the same compound, the GI50 in the test on HT29 colon was 2.32 µM; in the test with UACC-257 melanoma, 3.54 µM; in the test with M14 melanoma, 2.89 µM; in the test with CCRF-CEM leukemia, 3.31 µM. In addition, the TGI in the test on IGROV1 ovarian was > 100 µM; in the test on NCI/ADR-RES ovarian, 10.7 µM; in the test with OVCAR-4 ovarian, 53.5 µM; with OVCAR-3 ovarian, > 100 µM; in the test with A549 NSCLC it was > 100 µM; in the test on PC-3 prostate, > 100 µM. The TGI is > 100 µM in the test with HT29 colon, 38.7 µM in the test on UACC-257 melanoma, > 100 µM with M14 melanoma and > 100 µM in the test with CCRF-CEM leukemia.
